Measurements taken from paper PMC8445441, “Elucidating the mechanism by which synthetic helper peptides sensitize Pseudomonas aeruginosa to multiple antibiotics” (PLoS Pathogens, 2021).
Values joined by “and” are separate entries in the source; they are usually repeats but may differ in a detail not shown here. Equal entries are not always repeated. Where two headings read alike, the source gives them in different places. Positions of bridges follow the written chain, without caps; N, C: chain ends. Non-standard residues stand in square brackets, D forms with d. Residues, ends and D or L forms follow the SMILES beside them. *: point of attachment. Ileψ(thiazoline)Cys = CC[C@H](C)[C@H](N)C1=N[C@H](C(=O)*)CS1; dOrn = NCCC[C@@H](N)C(=O)O

Columns and labels:
[1] = system: clinical P. aeruginosa isolates; assay: microbe, parasite or virus in culture; conditions: for MIC: Pseudomonas aeruginosa, 18 h; for Antibiotic sensibility (MIC) of clinical P. aeruginosa isolate AUMC-Pa-1: strain AUMC-Pa-1; for Antibiotic sensibility (MIC) of clinical P. aeruginosa isolate AUMC-Pa-2: strain AUMC-Pa-2; for Antibiotic sensibility (MIC) of clinical P. aeruginosa isolate AUMC-Pa-3: strain AUMC-Pa-3; for Antibiotic sensibility (MIC) of clinical P. aeruginosa isolate AUMC-Pa-4: strain AUMC-Pa-4; for Antibiotic sensibility (MIC) of clinical P. aeruginosa isolate AUMC-Pa-5: strain AUMC-Pa-5; for Antibiotic sensibility (MIC) of clinical P. aeruginosa isolate AUMC-Pa-6: strain AUMC-Pa-6; for Antibiotic sensibility (MIC) of clinical P. aeruginosa isolate HM-214: strain HM-214; for Antibiotic sensibility (MIC) of clinical P. aeruginosa isolate NR-31040: strain NR-31040; for Antibiotic sensibility (MIC) of clinical P. aeruginosa isolate NR-31041: strain NR-31041
Experimental: The bacterial strains, primers and plasmids used in this study are listed in S5 Table. […] Bacteria were cultured in LB medium or cation-adjusted Muller-Hinton broth (CA-MHB) at 37 °C with agitation at 220 rpm. All the antibiotics and chemical compounds used in this study were purchased from Sigma-Aldrich.
(§1) The MIC tests were performed in triplicate using broth microdilution in accordance with Clinical and Laboratory Standards Institute (CLSI) recommendations (http://iacld.ir/DL/public/CLSI-2018-M100-S28.pdf). Briefly, drugs were two-fold diluted in MHB and mixed with an equal volume of bacterial suspensions containing approximately 1 × 10^6 CFU/mL in 96-well microliter plate. After 18 h incubation at 37 °C, the MIC values were defined as the lowest concentrations of antibiotics with no visible growth of bacteria. […] Otherwise, 1/4 MIC of the peptide was used in the combination. […] If needed, membrane compounds PG, PE, PC, CL or LPS, or membrane stabilizers MgCl2 or CaCl2, or efflux pumps inhibitor PAβN were added to the broth medium to clarify the effect of other substances on the synergy between peptide and antibiotics. All the tests were performed in triplicate.

[2] = system: P. aeruginosa PAO1; assay: microbe, parasite or virus in culture; conditions: for MIC: Pseudomonas aeruginosa, PAO1, 18 h
Experimental: as §1
The fractional inhibitory concentration (FIC) indices were calculated using the previously described formula FICI = FICa + FICb = MICac/MICa + MICbc/MICb. The FICI was interpreted according to EUCAST [65] as follows: synergistic, FICI≤0.5; additive, 0.5<FICI≤1; indifferent, 1<FICI<2; antagonistic, FICI ≥2. For the FICI calculations, twice the highest concentration tested was used in the cases where the MIC was not reached.

[3] = read-out: Antibiotic sensibility (MIC) of clinical P. aeruginosa isolate AUMC-Pa-1, strain AUMC-Pa-1, antibiotic alone
[4] = read-out: Antibiotic sensibility (MIC) of clinical P. aeruginosa isolate AUMC-Pa-2, strain AUMC-Pa-2, antibiotic alone
[5] = read-out: Antibiotic sensibility (MIC) of clinical P. aeruginosa isolate AUMC-Pa-3, strain AUMC-Pa-3, antibiotic alone
[6] = read-out: Antibiotic sensibility (MIC) of clinical P. aeruginosa isolate AUMC-Pa-4, strain AUMC-Pa-4, antibiotic alone
[7] = read-out: Antibiotic sensibility (MIC) of clinical P. aeruginosa isolate AUMC-Pa-5, strain AUMC-Pa-5, antibiotic alone
[8] = read-out: Antibiotic sensibility (MIC) of clinical P. aeruginosa isolate AUMC-Pa-6, strain AUMC-Pa-6, antibiotic alone
[9] = read-out: Antibiotic sensibility (MIC) of clinical P. aeruginosa isolate HM-214, strain HM-214, antibiotic alone
[10] = read-out: Antibiotic sensibility (MIC) of clinical P. aeruginosa isolate NR-31040, strain NR-31040, antibiotic alone
[11] = read-out: Antibiotic sensibility (MIC) of clinical P. aeruginosa isolate NR-31041, strain NR-31041, antibiotic alone
[12] = S3 Table, PAO1, antibiotic + 2 μM D-11
[13] = S3 Table, PAO1, antibiotic + 4 μM D-11
[14] = S3 Table, antibiotic alone, PAO1
[15] = read-out: MICa: the MIC of antibiotics, S3 Table, antibiotic alone, PAO1
[16] = read-out: Antibiotic sensibility (MIC) of clinical P. aeruginosa isolate AUMC-Pa-1
[17] = read-out: Antibiotic sensibility (MIC) of clinical P. aeruginosa isolate AUMC-Pa-2
[18] = read-out: Antibiotic sensibility (MIC) of clinical P. aeruginosa isolate AUMC-Pa-3
[19] = read-out: Antibiotic sensibility (MIC) of clinical P. aeruginosa isolate AUMC-Pa-4
[20] = read-out: Antibiotic sensibility (MIC) of clinical P. aeruginosa isolate AUMC-Pa-5
[21] = read-out: Antibiotic sensibility (MIC) of clinical P. aeruginosa isolate AUMC-Pa-6
[22] = read-out: Antibiotic sensibility (MIC) of clinical P. aeruginosa isolate HM-214
[23] = read-out: Antibiotic sensibility (MIC) of clinical P. aeruginosa isolate NR-31040
[24] = read-out: Antibiotic sensibility (MIC) of clinical P. aeruginosa isolate NR-31041
[25] = read-out: MICa: the MIC of antibiotics

Compound | MIC [1, 3] [µM] | MIC [1, 4] [µM] | MIC [1, 5] [µM] | MIC [1, 6] [µM] | MIC [1, 7] [µM] | MIC [1, 8] [µM] | MIC [1, 9] [µM] | MIC [1, 10] [µM] | MIC [1, 11] [µM] | FICI [2, 12] | FICI [2, 13] | MICac: the MIC for the antibiotic in the combination ([2]; S3 Table, PAO1, with 2 μM D-11) | MICac: the MIC for the antibiotic in the combination ([2]; S3 Table, PAO1, with 4 μM D-11) | MICa: the MIC of antibiotics [2, 14] | also measured
NCC[C@H](O)C(=O)N[C@@H]1C[C@H](N)[C@@H](O[C@H]2O[C@H](CN)[C@@H](O)[C@H](O)[C@H]2O)[C@H](O)[C@H]1O[C@H]1O[C@H](CO)[C@@H](O)[C@H](N)[C@H]1O [Amikacin] | 1 | 0.25 | 0.0625 | 1 | 1 | 2 | 1 | 4 | 2 | 1.063 | 2.125 | 1/1 μM | 2 µM | 1/1 μM and 1 μM | –
CC1(C)S[C@@H]2[C@H](NC(=O)[C@H](N)c3ccc(O)cc3)C(=O)N2[C@H]1C(=O)O [Amoxicin, Amoxicillin] | > 128 | > 128 | > 128 | > 128 | > 128 | > 128 | > 128 | > 128 | > 128 | – | 1.125 | >128/>128 μM | >128/>128 μM | – | MIC [2, 15]: > 128 µM
CC1(C)S[C@@H]2[C@H](NC(=O)[C@H](N)c3ccccc3)C(=O)N2[C@H]1C(=O)O [Ampicillin] | > 128 | > 128 | > 128 | > 128 | > 128 | > 128 | > 128 | > 128 | > 128 | – | 1.125 | >128/>128 μM | >128/>128 μM | – | MIC [2, 15]: > 128 µM
CC[C@H](C)[C@H](N)C1=N[C@H](C(=O)N[C@@H](CC(C)C)C(=O)N[C@H](CCC(=O)O)C(=O)N[C@H](C(=O)N[C@H]2CCCCNC(=O)[C@H](CC(N)=O)NC(=O)[C@@H](CC(=O)O)NC(=O)[C@H](Cc3cnc[nH]3)NC(=O)[C@@H](Cc3ccccc3)NC(=O)[C@H]([C@@H](C)CC)NC(=O)[C@@H](CCCN)NC2=O)[C@@H](C)CC)CS1 [Bacitracin] ({Ileψ(thiazoline)Cys}-L[dE]IK[dOrn]I[dF]H[dD]N; lactam 4-C (inferred); N-terminus assumed) | – | – | – | – | – | – | – | – | – | 1.063 | 1.125 | >128/>128 μM | >128/>128 μM | >128/>128 μM | Antibiotic sensibility (MIC) of clinical P. aeruginosa isolate AUMC-Pa-1 ([1]; antibiotic alone): >128 µM; Antibiotic sensibility (MIC) of clinical P. aeruginosa isolate AUMC-Pa-2 ([1]; antibiotic alone): >128 µM; Antibiotic sensibility (MIC) of clinical P. aeruginosa isolate AUMC-Pa-3 ([1]; antibiotic alone): >128 µM; Antibiotic sensibility (MIC) of clinical P. aeruginosa isolate AUMC-Pa-4 ([1]; antibiotic alone): >128 µM; Antibiotic sensibility (MIC) of clinical P. aeruginosa isolate AUMC-Pa-5 ([1]; antibiotic alone): >128 µM; Antibiotic sensibility (MIC) of clinical P. aeruginosa isolate AUMC-Pa-6 ([1]; antibiotic alone): >128 µM; Antibiotic sensibility (MIC) of clinical P. aeruginosa isolate HM-214 ([1]; antibiotic alone): >128 µM; Antibiotic sensibility (MIC) of clinical P. aeruginosa isolate NR-31040 ([1]; antibiotic alone): >128 µM; Antibiotic sensibility (MIC) of clinical P. aeruginosa isolate NR-31041 ([1]; antibiotic alone): >128 µM
CO/N=C(\C(=O)N[C@@H]1C(=O)N2C(C(=O)[O-])=C(C[N+]3(C)CCCC3)CS[C@H]12)c1csc(N)n1 [Cefepime] | 8 | 0.5 | 2 | 2 | 4 | 4 | 128 | 4 | 16 | 0.563 | 0.625 | 1 µM | 1 µM | 2 µM | –
CCCCc1ccc(C(=O)O)nc1 [Fusaric Acid] | – | – | – | – | – | – | – | – | – | 1.063 | 1.125 | >128/>128 μM | >128/>128 μM | – | MIC [1, 16]: > 128 µM; MIC [1, 17]: > 128 µM; MIC [1, 18]: > 128 µM; MIC [1, 19]: > 128 µM; MIC [1, 20]: > 128 µM; MIC [1, 21]: > 128 µM; MIC [1, 22]: > 128 µM; MIC [1, 23]: > 128 µM; MIC [1, 24]: > 128 µM; MIC [2, 25]: > 128 µM
CNC(C)C1CCC(N)C(OC2C(N)CC(N)C(OC3OCC(C)(O)C(NC)C3O)C2O)O1 (stereo not drawn) [Gentamicin] | 0.5 | 0.25 | 0.0625 | 0.5 | 0.5 | 2 | 1 | 32 | 32 | 2.063 | 2.125 | 2 µM | 2 µM | 1 µM | –
NC[C@H]1O[C@H](O[C@H]2[C@H](O)[C@@H](O[C@H]3O[C@H](CO)[C@@H](O)[C@H](N)[C@H]3O)[C@H](N)C[C@@H]2N)[C@H](O)[C@@H](O)[C@@H]1O [Kanamycin] | – | – | – | – | – | – | – | – | – | 2.063 | 2.125 | 128 µM | 128 µM | 64 µM | Antibiotic sensibility (MIC) of clinical P. aeruginosa isolate AUMC-Pa-1 ([1]; antibiotic alone): 64 µM; Antibiotic sensibility (MIC) of clinical P. aeruginosa isolate AUMC-Pa-2 ([1]; antibiotic alone): 16 µM; Antibiotic sensibility (MIC) of clinical P. aeruginosa isolate AUMC-Pa-3 ([1]; antibiotic alone): 32 µM; Antibiotic sensibility (MIC) of clinical P. aeruginosa isolate AUMC-Pa-4 ([1]; antibiotic alone): 32 µM; Antibiotic sensibility (MIC) of clinical P. aeruginosa isolate AUMC-Pa-5 ([1]; antibiotic alone): 32 µM; Antibiotic sensibility (MIC) of clinical P. aeruginosa isolate AUMC-Pa-6 ([1]; antibiotic alone): 32 µM; Antibiotic sensibility (MIC) of clinical P. aeruginosa isolate HM-214 ([1]; antibiotic alone): 128 µM; Antibiotic sensibility (MIC) of clinical P. aeruginosa isolate NR-31040 ([1]; antibiotic alone): 128 µM; Antibiotic sensibility (MIC) of clinical P. aeruginosa isolate NR-31041 ([1]; antibiotic alone): 128 µM
CC(=O)NC[C@H]1CN(c2ccc(N3CCOCC3)c(F)c2)C(=O)O1 [Linezolid] | > 128 | > 128 | > 128 | > 128 | > 128 | > 128 | > 128 | > 128 | > 128 | 1.063 | 1.125 | >128/>128 μM | >128/>128 μM | – | MIC [2, 15]: > 128 µM
CN(C)C(=O)C(CCN1CCC(O)(c2ccc(Cl)cc2)CC1)(c1ccccc1)c1ccccc1 [Loperamide] | – | – | – | – | – | – | – | – | – | – | – | – | – | – | MIC [1, 16]: > 128 µM; MIC [1, 17]: > 128 µM; MIC [1, 18]: > 128 µM; MIC [1, 19]: > 128 µM; MIC [1, 20]: > 128 µM; MIC [1, 21]: > 128 µM; MIC [1, 22]: > 128 µM; MIC [1, 23]: > 128 µM; MIC [1, 24]: > 128 µM; FICI [2]: 1.063 and 1.125; MICac: the MIC for the antibiotic in the combination [2]: >128/>128 μM; MIC [2, 25]: > 128 µM
[H]/N=C(/N)N[C@H]1[C@H](O)[C@@H](O)[C@H](O[C@@H]2O[C@@H](C)[C@](O)(C=O)[C@H]2O[C@@H]2O[C@@H](CO)[C@H](O)[C@@H](O)[C@@H]2NC)[C@@H](N/C(N)=N\[H])[C@@H]1O [Streptomycin] | 16 | 8 | 128 | 8 | 8 | 16 | 128 | > 128 | > 128 | 1.063 | 1.125 | 64/64 μM | 64/64 μM | 64/64 μM | –
